Columns and labels:
Test in all cases: relative viability (nuclei count vs DMSO), 5 days (fraction); higher = more cells survive
Neratinib + Foretinib = compound: CCOc1cc2ncc(C#N)c(Nc3ccc(OCc4ccccn4)c(Cl)c3)c2cc1NC(=O)/C=C/CN(C)C [Neratinib] + COc1cc2c(Oc3ccc(NC(=O)C4(C(=O)Nc5ccc(F)cc5)CC4)cc3F)ccnc2cc1OCCCN1CCOCC1 [Foretinib] (partner 0.25 µM)
Summary of the method: (§1)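 The day after seeding in 1536-well plates, lung cancer cell lines were treated by pin tool with a single drug, or with a fixed anchor-drug dose together with five library-drug doses (not always all listed) in √10 steps. After 5 days, a combined fix-and-stain solution (final 0.05% Triton X-100, 1% formaldehyde, 1 ug/ml Hoechst) was added. Nuclei counted on 4× images gave relative viability as treated counts over vehicle counts, reported as the median of duplicate plates.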

Neratinib + Luminespib = compound: CCOc1cc2ncc(C#N)c(Nc3ccc(OCc4ccccn4)c(Cl)c3)c2cc1NC(=O)/C=C/CN(C)C [Neratinib] + CCNC(=O)c1noc(-c2cc(C(C)C)c(O)cc2O)c1-c1ccc(CN2CCOCC2)cc1 [Luminespib] (partner 0.01 µM)
Summary of the method: as §1

Neratinib + Decitabine = compound: CCOc1cc2ncc(C#N)c(Nc3ccc(OCc4ccccn4)c(Cl)c3)c2cc1NC(=O)/C=C/CN(C)C [Neratinib] + Nc1ncn([C@H]2C[C@H](O)[C@@H](CO)O2)c(=O)n1 [Decitabine] (partner 2 µM)
Summary of the method: as §1

Neratinib + Dasatinib = compound: CCOc1cc2ncc(C#N)c(Nc3ccc(OCc4ccccn4)c(Cl)c3)c2cc1NC(=O)/C=C/CN(C)C [Neratinib] + Cc1nc(Nc2ncc(C(=O)Nc3c(C)cccc3Cl)s2)cc(N2CCN(CCO)CC2)n1 [Dasatinib] (partner 0.075 µM)
Summary of the method: as §1

Cell Line	relative viability (Neratinib + Foretinib; first compound 0.01 µM)	relative viability (Neratinib + Foretinib; first compound 0.03162 µM)	relative viability (Neratinib + Foretinib; first compound 0.1 µM)	relative viability (Neratinib + Foretinib; first compound 0.3162 µM)	relative viability (Neratinib + Luminespib; first compound 0.01 µM)	relative viability (Neratinib + Luminespib; first compound 0.03162 µM)	relative viability (Neratinib + Luminespib; first compound 0.1 µM)	relative viability (Neratinib + Luminespib; first compound 0.3162 µM)	relative viability (Neratinib + Luminespib; first compound 1 µM)	relative viability (Neratinib + Decitabine; first compound 0.01 µM)	relative viability (Neratinib + Decitabine; first compound 0.03162 µM)	relative viability (Neratinib + Decitabine; first compound 0.3162 µM)	relative viability (Neratinib + Decitabine; first compound 1 µM)	relative viability (Neratinib + Dasatinib; first compound 0.01 µM)	relative viability (Neratinib + Dasatinib; first compound 0.03162 µM)	relative viability (Neratinib + Dasatinib; first compound 0.3162 µM)	relative viability (Neratinib + Dasatinib; first compound 1 µM)	relative viability (Neratinib + Foretinib; first compound 1 µM)	relative viability (Neratinib + Decitabine; first compound 0.1 µM)	relative viability (Neratinib + Dasatinib; first compound 0.1 µM)
201T	1.06	1.12	0.797	0.995	1.08	1.02	0.977	1.1	0.931	0.858	0.857	0.853	0.84	0.629	0.539	0.49	0.6	–	–	–
A549	0.969	0.927	–	0.832	–	–	–	–	–	0.325	0.295	0.264	0.318	–	–	–	–	0.54	–	–
A-427	1.05	–	0.972	0.935	1.23	0.966	0.778	1.02	0.274	0.558	0.606	0.521	0.54	0.895	0.74	0.673	0.571	0.255	0.573	0.734
ABC-1	1.16	1.12	0.689	0.954	0.337	0.659	0.405	0.315	0.278	1.21	1.31	1.07	0.746	0.638	–	0.455	0.349	0.466	1.23	0.593
BEN	0.66	0.631	0.822	0.657	0.605	0.367	0.378	0.307	0.243	0.76	0.77	0.636	0.702	0.329	0.305	0.3	0.414	0.498	0.809	0.319
CAL-12T	1.04	1.12	0.979	0.824	0.445	0.393	0.291	0.104	0.123	–	–	–	–	0.325	0.475	0.13	0.122	0.284	–	0.212
COR-L23	1.09	1.03	0.946	0.966	–	0.621	0.598	0.606	0.257	0.456	0.478	0.495	0.473	0.558	0.602	0.439	0.308	0.837	0.499	0.489
COR-L 105	0.995	1.28	0.54	0.324	0.862	0.669	0.53	0.35	0.203	0.674	0.618	–	0.349	0.288	0.353	0.146	0.164	0.284	0.402	0.236
Calu-6	0.929	0.891	0.736	0.85	–	–	–	–	–	–	–	–	–	–	–	–	–	0.513	–	–
ChaGo-K-1	0.945	1.07	0.884	0.888	0.753	0.672	0.604	0.595	–	0.517	0.581	0.526	0.534	0.561	0.62	0.571	0.544	0.718	0.517	0.555
EBC-1	0.102	0.0886	0.111	0.113	–	–	–	–	–	–	–	–	–	–	–	–	–	0.0982	–	–
EKVX	0.697	0.952	0.578	0.567	0.821	0.884	0.708	0.496	0.246	0.339	0.351	0.197	0.16	0.632	0.676	0.243	0.253	0.193	0.324	0.443
EMC-BAC-2	1.19	0.99	0.669	–	1.38	1.17	1.08	0.976	0.597	1.12	1	0.988	0.929	0.368	0.342	0.33	0.248	0.54	0.942	0.302
EPLC-272H	–	0.431	0.45	0.419	–	0.616	0.464	0.315	0.135	0.407	0.444	0.331	0.344	–	0.457	0.208	0.152	0.194	0.332	0.284
H3255	0.976	0.425	0.716	0.334	0.949	0.765	0.669	0.387	0.211	0.548	0.471	0.218	0.245	0.38	0.392	0.195	–	0.17	0.454	0.283
HARA	0.973	0.91	–	0.496	0.685	0.743	0.662	0.271	0.117	0.573	0.493	–	0.476	0.303	0.312	0.155	0.148	0.375	0.414	0.196
HCC-15	1.07	1.21	–	0.885	0.347	0.377	0.274	0.339	0.161	0.684	0.703	0.662	0.597	0.655	0.676	0.644	0.517	0.66	0.646	0.555
HCC-44	–	–	–	–	1.29	1.23	0.989	1.07	0.524	0.993	0.983	0.922	1.09	–	–	–	–	–	0.897	–
HCC-78	0.561	0.555	0.499	0.344	–	–	–	–	–	0.816	–	0.691	0.649	0.5	0.363	0.292	0.276	0.365	0.651	0.342
HCC-366	0.971	0.961	0.844	0.856	–	–	–	–	–	0.361	0.429	0.368	0.471	0.688	0.716	0.588	0.689	1.03	0.33	0.615

Cell Line	relative viability (Neratinib + Foretinib; first compound 0.01 µM)	relative viability (Neratinib + Foretinib; first compound 0.03162 µM)	relative viability (Neratinib + Foretinib; first compound 0.1 µM)	relative viability (Neratinib + Foretinib; first compound 0.3162 µM)	relative viability (Neratinib + Luminespib; first compound 0.01 µM)	relative viability (Neratinib + Luminespib; first compound 0.03162 µM)	relative viability (Neratinib + Luminespib; first compound 0.1 µM)	relative viability (Neratinib + Luminespib; first compound 0.3162 µM)	relative viability (Neratinib + Luminespib; first compound 1 µM)	relative viability (Neratinib + Decitabine; first compound 0.01 µM)	relative viability (Neratinib + Decitabine; first compound 0.03162 µM)	relative viability (Neratinib + Decitabine; first compound 0.3162 µM)	relative viability (Neratinib + Decitabine; first compound 1 µM)	relative viability (Neratinib + Dasatinib; first compound 0.01 µM)	relative viability (Neratinib + Dasatinib; first compound 0.03162 µM)	relative viability (Neratinib + Dasatinib; first compound 0.3162 µM)	relative viability (Neratinib + Dasatinib; first compound 1 µM)	relative viability (Neratinib + Foretinib; first compound 1 µM)	relative viability (Neratinib + Decitabine; first compound 0.1 µM)	relative viability (Neratinib + Dasatinib; first compound 0.1 µM)
HCC-827	1.17	1.11	0.934	0.186	1.08	1.03	0.703	0.176	0.18	0.375	0.354	0.243	0.217	0.421	0.39	0.248	0.169	0.173	0.271	0.366
HOP-62	1.16	1.08	0.982	1.14	0.917	0.974	0.893	0.884	0.927	0.215	0.222	–	0.215	0.636	0.67	0.686	0.676	0.92	0.198	0.602
IA-LM	1.36	1.36	1.11	0.927	–	–	–	–	–	–	–	–	–	–	–	–	–	0.628	–	–
LC-2-ad	0.898	0.989	0.777	0.532	1.11	1.1	1.04	0.87	0.465	0.931	0.815	0.7	–	0.569	0.697	0.304	0.342	0.393	0.72	0.545
LCLC-97TM1	1.07	0.952	0.829	0.824	0.823	0.837	0.762	0.684	0.589	0.258	0.251	–	0.215	1.05	0.859	0.726	0.693	0.483	0.276	0.858
LCLC-103H	0.926	0.805	0.704	0.697	0.921	0.981	0.883	0.93	0.647	0.772	0.8	0.761	0.7	0.551	0.5	0.375	0.346	0.496	0.585	0.415
LK-2	1.27	1.6	1.24	0.958	0.183	0.21	0.197	0.18	0.125	0.321	0.372	0.225	0.24	0.28	0.275	0.258	0.218	0.656	0.305	0.354
LOU-NH91	0.971	0.82	0.644	0.542	0.38	0.328	0.338	0.331	0.287	0.794	0.775	0.673	0.604	0.579	0.504	0.413	0.377	0.504	0.68	0.448
LU99A	0.959	–	0.73	0.462	0.268	0.19	0.231	0.333	0.22	–	1.12	0.952	0.578	0.636	0.352	0.51	0.278	0.376	0.752	0.551
LXF-289	1	1	0.961	0.995	0.726	0.805	–	0.695	0.453	0.382	0.396	0.349	0.421	0.186	0.234	0.21	0.188	0.709	0.39	0.162
NCI-H23	–	0.686	–	0.942	0.201	0.231	0.203	0.225	0.204	0.325	0.298	0.404	0.264	0.695	0.876	0.825	0.537	0.463	0.289	0.779
NCI-H322M	0.863	0.958	–	0.408	0.852	0.796	0.701	0.392	0.352	0.678	0.643	0.558	0.39	0.24	0.237	0.228	0.293	0.361	0.646	0.237
NCI-H358	0.613	0.478	0.339	0.154	0.301	0.518	0.279	0.108	0.12	0.205	0.186	0.129	0.117	0.131	0.131	0.146	0.126	0.103	–	0.104
NCI-H441	1.01	1.04	1.07	0.856	0.415	0.413	0.423	0.304	0.16	0.255	0.246	0.209	0.2	0.696	0.488	0.305	0.175	0.492	0.235	0.611
NCI-H1299	1.1	1.09	1.07	1.12	–	–	–	–	–	–	–	–	–	–	–	–	–	1.12	–	–
NCI-H1563	0.858	0.942	0.885	0.844	0.57	0.498	0.488	0.503	0.484	–	–	–	–	0.513	0.485	0.41	0.332	0.75	–	0.499
NCI-H1648	–	–	–	–	–	–	–	–	–	0.505	0.389	0.352	0.366	–	–	–	–	–	0.384	–
NCI-H1703	0.447	0.318	0.356	0.327	–	–	–	–	–	–	–	–	–	–	–	–	–	0.218	–	–
NCI-H1792	–	–	–	–	0.458	0.466	0.365	0.358	0.381	0.731	0.576	0.516	0.546	0.769	0.905	0.684	0.368	–	0.503	0.738
NCI-H2228	–	0.95	0.715	0.646	0.145	0.138	0.14	0.12	0.114	–	–	–	–	0.494	0.566	0.45	0.102	0.204	–	0.366
